Measurements reported in article PMC7794376 (Nature Communications, 2021).
Several values for one entry are separate records, joined by “and”; a condition that tells them apart may be missing. Equal entries are not always repeated. Where two headings read alike, the source gives them in different places.

What was measured:
MtbCoaBC = MtbCoaBC (Mycobacterium tuberculosis, UniProt P9WNZ1); assay: biochemical; type: biochemical; conditions: for activity at 0.03125 µM / activity at 0.0625 µM / activity at 0.25 µM / activity at 0.5 µM / activity at 1 µM / activity at 2 µM: relative to average DMSO CT; for Activity R1 / Activity R3: slope of absorbance at 360nm vs time (s)
M. tuberculosis H37Rv = assay: MIC determination in different media; type: cell-based; conditions: Mycobacterium tuberculosis, read-out: Minimum inhibitory concentration (MIC)

Chain of MtbCoaBC (P9WNZ1 whole entry): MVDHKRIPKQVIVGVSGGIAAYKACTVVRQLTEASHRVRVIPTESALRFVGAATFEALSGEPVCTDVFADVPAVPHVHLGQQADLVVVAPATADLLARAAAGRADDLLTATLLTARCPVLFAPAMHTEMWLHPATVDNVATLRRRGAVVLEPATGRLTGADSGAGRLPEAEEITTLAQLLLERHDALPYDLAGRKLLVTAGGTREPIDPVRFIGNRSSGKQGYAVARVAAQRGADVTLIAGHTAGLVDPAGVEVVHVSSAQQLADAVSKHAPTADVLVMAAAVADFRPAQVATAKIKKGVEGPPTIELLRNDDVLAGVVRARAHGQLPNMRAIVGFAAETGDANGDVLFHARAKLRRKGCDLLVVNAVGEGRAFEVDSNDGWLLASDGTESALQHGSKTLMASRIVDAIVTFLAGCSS

**Q.** Which results are given for Cc1ccc(-c2oc3cc(O)cc(O)c3c(=O)c2O)cc1C [compound 2d]?
**A.** inhibition at 0.03125 µM (MtbCoaBC; 2d at 0.03125 uM, replicate R1, read-out: Inhibition % R1): 0.7%; activity at 0.03125 µM (MtbCoaBC; 2d at 0.03125 uM, replicate R1, read-out: Activity % R1): 99.3%; Activity R1 (MtbCoaBC; 2d at 0.03125 uM, replicate R1): 0.0001845; inhibition at 0.03125 µM (MtbCoaBC; 2d at 0.03125 uM, replicate R2, read-out: Inhibition % R2): 0.97%; activity at 0.03125 µM (MtbCoaBC; 2d at 0.03125 uM, replicate R2, read-out: Activity % R2): 99%; inhibition at 0.03125 µM (MtbCoaBC; 2d at 0.03125 uM, replicate R3, read-out: Inhibition % R3): 0.58%; activity at 0.03125 µM (MtbCoaBC; 2d at 0.03125 uM, replicate R3, read-out: Activity % R3): 99.4%; Activity R3 (MtbCoaBC; 2d at 0.03125 uM, replicate R3): 0.0001847; inhibition at 0.0625 µM (MtbCoaBC; 2d at 0.0625 uM, replicate R1, read-out: Inhibition % R1): 8.46%; activity at 0.0625 µM (MtbCoaBC; 2d at 0.0625 uM, replicate R1, read-out: Activity % R1): 91.5%; Activity R1 (MtbCoaBC; 2d at 0.0625 uM, replicate R1): 0.0001701; inhibition at 0.0625 µM (MtbCoaBC; 2d at 0.0625 uM, replicate R2, read-out: Inhibition % R2): 5.42%; activity at 0.0625 µM (MtbCoaBC; 2d at 0.0625 uM, replicate R2, read-out: Activity % R2): 94.6%; inhibition at 0.0625 µM (MtbCoaBC; 2d at 0.0625 uM, replicate R3, read-out: Inhibition % R3): 3.86%; activity at 0.0625 µM (MtbCoaBC; 2d at 0.0625 uM, replicate R3, read-out: Activity % R3): 96.1%; Activity R3 (MtbCoaBC; 2d at 0.0625 uM, replicate R3): 0.0001786; inhibition at 0.25 µM (MtbCoaBC; 2d at 0.25 uM, replicate R1, read-out: Inhibition % R1): 14.5%; activity at 0.25 µM (MtbCoaBC; 2d at 0.25 uM, replicate R1, read-out: Activity % R1): 85.5%; Activity R1 (MtbCoaBC; 2d at 0.25 uM, replicate R1): 0.0001588; inhibition at 0.25 µM (MtbCoaBC; 2d at 0.25 uM, replicate R2, read-out: Inhibition % R2): 31.1%; activity at 0.25 µM (MtbCoaBC; 2d at 0.25 uM, replicate R2, read-out: Activity % R2): 68.9%; inhibition at 0.25 µM (MtbCoaBC; 2d at 0.25 uM, replicate R3, read-out: Inhibition % R3): 29.5%; activity at 0.25 µM (MtbCoaBC; 2d at 0.25 uM, replicate R3, read-out: Activity % R3): 70.5%; Activity R3 (MtbCoaBC; 2d at 0.25 uM, replicate R3): 0.000131; inhibition at 0.5 µM (MtbCoaBC; 2d at 0.5 uM, replicate R1, read-out: Inhibition % R1): 41%; activity at 0.5 µM (MtbCoaBC; 2d at 0.5 uM, replicate R1, read-out: Activity % R1): 59%; Activity R1 (MtbCoaBC; 2d at 0.5 uM, replicate R1): 0.0001096; inhibition at 0.5 µM (MtbCoaBC; 2d at 0.5 uM, replicate R2, read-out: Inhibition % R2): 49.6%; activity at 0.5 µM (MtbCoaBC; 2d at 0.5 uM, replicate R2, read-out: Activity % R2): 50.4%; inhibition at 0.5 µM (MtbCoaBC; 2d at 0.5 uM, replicate R3, read-out: Inhibition % R3): 54%; activity at 0.5 µM (MtbCoaBC; 2d at 0.5 uM, replicate R3, read-out: Activity % R3): 46%; Activity R3 (MtbCoaBC; 2d at 0.5 uM, replicate R3): 8.549e-5 and 0.000085493; inhibition at 1 µM (MtbCoaBC; 2d at 1 uM, replicate R1, read-out: Inhibition % R1): 63%; activity at 1 µM (MtbCoaBC; 2d at 1 uM, replicate R1, read-out: Activity % R1): 37%; Activity R1 (MtbCoaBC; 2d at 1 uM, replicate R1): 6.875e-5 and 0.000068751; inhibition at 1 µM (MtbCoaBC; 2d at 1 uM, replicate R2, read-out: Inhibition % R2): 75%; activity at 1 µM (MtbCoaBC; 2d at 1 uM, replicate R2, read-out: Activity % R2): 25%; inhibition at 1 µM (MtbCoaBC; 2d at 1 uM, replicate R3, read-out: Inhibition % R3): 72.4%; activity at 1 µM (MtbCoaBC; 2d at 1 uM, replicate R3, read-out: Activity % R3): 27.6%; Activity R3 (MtbCoaBC; 2d at 1 uM, replicate R3): 5.136e-5 and 0.000051357; inhibition at 2 µM (MtbCoaBC; 2d at 2 uM, replicate R1, read-out: Inhibition % R1): 79%; activity at 2 µM (MtbCoaBC; 2d at 2 uM, replicate R1, read-out: Activity % R1): 21%; Activity R1 (MtbCoaBC; 2d at 2 uM, replicate R1): 3.9e-5 and 0.000039000; inhibition at 2 µM (MtbCoaBC; 2d at 2 uM, replicate R2, read-out: Inhibition % R2): 91%; activity at 2 µM (MtbCoaBC; 2d at 2 uM, replicate R2, read-out: Activity % R2): 8.99%; inhibition at 2 µM (MtbCoaBC; 2d at 2 uM, replicate R3, read-out: Inhibition % R3): 85%; activity at 2 µM (MtbCoaBC; 2d at 2 uM, replicate R3, read-out: Activity % R3): 15%; Activity R3 (MtbCoaBC; 2d at 2 uM, replicate R3): 2.786e-5 and 0.000027864; Activity R1 (MtbCoaBC; 2d at […], replicate R1): 0.0001624; Activity R3 (MtbCoaBC; 2d at […], replicate R3): 0.0001724; IC50 (MtbCoaBC; CoaB activity, […] CTP, […] PPA, 500 µM L-cysteine, average of three independent experiments ± SD, read-out: IC50 EnzChek MtbCoaBC): 540 ± 60 nM; MIC (M. tuberculosis H37Rv; 7H9/ADC/Glycerol): > 250 µM; MIC (M. tuberculosis H37Rv; 7H9/Cholesterol/Tyloxapol): > 250 µM; MIC (M. tuberculosis H37Rv; GAST/Fe): > 250 µM
